Laboratory results from patent US8802597B2, “Herbicidal pyrimidines” (E I du Pont de Nemours and Company, priority 2003, dated 2014).

Key:
Type in all cases: in vivo
wild oat (Avena fatua) = test: Test B postemergence; settings: scale 0 to 100 (0 no effect, 100 complete control)
Outline: (§1)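 Formulation: non-phytotoxic solvent blend with surfactant. Timing: preemergence on seeds, postemergence at 1- to 4-leaf (2–18 cm). Assessment: visual, 0–100 against controls, after 13–15 days' greenhouse growth.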

[1] = tested on: blackgrass (Alopecurus myosuroides); test: Test B postemergence; settings: scale 0 to 100 (0 no effect, 100 complete control)
Outline: as §1

[2] = tested on: barnyardgrass (Echinochloa crus-galli); test: Test B flooded paddy test; settings: Flood, scale 0 to 100
Outline: (§2)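 Visual injury scoring (0 = no effect, 100 = complete control) versus controls made 13 to 15 days after treatment in the greenhouse. Test species were grown in flooded paddy to the 2-leaf stage: rice, barnyardgrass, umbrella sedge, duck salad.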

[3] = tested on: duck salad (Heteranthera limosa); test: Test B flooded paddy test; settings: Flood, scale 0 to 100
Outline: as §2

rice (Oryza sativa) = test: Test B flooded paddy test; settings: Flood, scale 0 to 100
Outline: as §2

[4] = tested on: umbrella sedge (Cyperus difformis); test: Test B flooded paddy test; settings: Flood, scale 0 to 100
Outline: as §2

[5] = tested on: pigweed (Amaranthus retroflexus); test: Test B pre/postemergence; settings: for Pigweed plant response rating: Postemergence; for Plant response rating, Pigweed: Preemergence
Outline: as §1

[6] = tested on: giant foxtail (Setaria faberii); test: Test B pre/postemergence; settings: for Foxtail, Giant plant response rating: Postemergence; for Plant response rating, Foxtail, Giant: Preemergence
Outline: as §1

[7] = tested on: velvetleaf (Abutilon theophrasti); test: Test B pre/postemergence; settings: for Velvetleaf plant response rating: Postemergence; for Plant response rating, Velvetleaf: Preemergence
Outline: as §1

[8] = tested on: lambsquarters (Chenopodium album); test: Test B pre/postemergence; settings: for Lambsquarters plant response rating: Postemergence; for Plant response rating, Lambsquarters: Preemergence
Outline: as §1

corn (Zea mays) = test: Test B pre/postemergence; settings: for Corn plant response rating: Postemergence; for Plant response rating, Corn: Preemergence
Outline: as §1

[9] = tested on: barnyardgrass (Echinochloa crus-galli); test: Test B pre/postemergence; settings: for Barnyardgrass plant response rating: Postemergence; for Plant response rating, Barnyardgrass: Preemergence
Outline: as §1

[10] = tested on: crabgrass (Digitaria sanguinalis); test: Test B pre/postemergence; settings: for Crabgrass plant response rating: Postemergence; for Plant response rating, Crabgrass: Preemergence
Outline: as §1

[11] = tested on: morningglory (Ipomoea coccinea); test: Test B pre/postemergence; settings: for Morningglory plant response rating: Postemergence; for Plant response rating, Morningglory: Preemergence
Outline: as §1

[12] = tested on: cocklebur (Xanthium strumarium); test: Test B pre/postemergence; settings: for Cocklebur plant response rating: Postemergence; for Plant response rating, Cocklebur: Preemergence
Outline: as §1

[13] = tested on: wheat (Triticum aestivum); test: Test B pre/postemergence; settings: for Wheat plant response rating: Postemergence; for Plant response rating, Wheat: Preemergence
Outline: as §1

[14] = tested on: Surinam grass (Brachiaria decumbens); test: Test B pre/postemergence; settings: for Surinam Grass plant response rating: Postemergence; for Plant response rating, Surinam Grass: Preemergence
Outline: as §1

[15] = 62 g ai/ha, scale 0 to 100 (0 no effect, 100 complete control)
[16] = 125 g ai/ha, scale 0 to 100 (0 no effect, 100 complete control)
[17] = 62 g ai/ha, scale 0 to 100, 0 no effect, 100 complete control

COC(=O)c1nc(-c2ccc(Cl)cc2)nc(N)c1Br [Compound 83]
Oat, Wild plant response rating (wild oat (Avena fatua); 62 g ai/ha): 0
Oat, Wild plant response rating (wild oat (Avena fatua); 125 g ai/ha): 40
Blackgrass plant response rating ([1]; 62 g ai/ha): 50
Blackgrass plant response rating ([1]; 125 g ai/ha): 60
Plant response rating, Barnyardgrass ([2]; 125 g ai/ha): 0
Plant response rating, Barnyardgrass ([2]; 500 g ai/ha): 0
Plant response rating, Ducksalad ([3]; 125 g ai/ha): 100
Plant response rating, Ducksalad ([3]; 500 g ai/ha): 100
Plant response rating, Rice (rice (Oryza sativa); 125 g ai/ha): 0
Plant response rating, Rice (rice (Oryza sativa); 500 g ai/ha): 0
Plant response rating, Sedge, Umbrella ([4]; 125 g ai/ha): 90
Plant response rating, Sedge, Umbrella ([4]; 500 g ai/ha): 100
Pigweed plant response rating [5, 15]: 100
Pigweed plant response rating [5, 16]: 100
Plant response rating, Pigweed [5, 17]: 80
Plant response rating, Pigweed [5, 16]: 100
Foxtail, Giant plant response rating [6, 15]: 40
Foxtail, Giant plant response rating [6, 16]: 50
Plant response rating, Foxtail, Giant [6, 17]: 0
Plant response rating, Foxtail, Giant [6, 16]: 10
Velvetleaf plant response rating [7, 15]: 80
Velvetleaf plant response rating [7, 16]: 90
Plant response rating, Velvetleaf [7, 17]: 50
Plant response rating, Velvetleaf [7, 16]: 60
Lambsquarters plant response rating [8, 15]: 100
Lambsquarters plant response rating [8, 16]: 100
Plant response rating, Lambsquarters [8, 17]: 70
Plant response rating, Lambsquarters [8, 16]: 90
Corn plant response rating (corn (Zea mays); [15]): 10
Corn plant response rating (corn (Zea mays); [16]): 10
Plant response rating, Corn (corn (Zea mays); [17]): 0
Plant response rating, Corn (corn (Zea mays); [16]): 0
Barnyardgrass plant response rating [9, 15]: 50
Barnyardgrass plant response rating [9, 16]: 80
Plant response rating, Barnyardgrass [9, 17]: 20
Plant response rating, Barnyardgrass [9, 16]: 30
Crabgrass plant response rating [10, 15]: 50
Crabgrass plant response rating [10, 16]: 60
Plant response rating, Crabgrass [10, 17]: 30
Plant response rating, Crabgrass [10, 16]: 60
Morningglory plant response rating [11, 15]: 60
Morningglory plant response rating [11, 16]: 100
Plant response rating, Morningglory [11, 17]: 0
Plant response rating, Morningglory [11, 16]: 10
Cocklebur plant response rating [12, 15]: 90
Cocklebur plant response rating [12, 16]: 100
Plant response rating, Cocklebur [12, 17]: 10
Plant response rating, Cocklebur [12, 16]: 50
Wheat plant response rating [13, 15]: 0
Wheat plant response rating [13, 16]: 30
Plant response rating, Wheat [13, 17]: 20
Plant response rating, Wheat [13, 16]: 50
Surinam Grass plant response rating [14, 15]: 50
Surinam Grass plant response rating [14, 16]: 60
Plant response rating, Surinam Grass [14, 17]: 0
Plant response rating, Surinam Grass [14, 16]: 10

Nc1nc(-c2ccc(Cl)cc2)nc(C(=O)O)c1Br [Compound 88]
Oat, Wild plant response rating (wild oat (Avena fatua); 62 g ai/ha): 40
Oat, Wild plant response rating (wild oat (Avena fatua); 125 g ai/ha): 50
Blackgrass plant response rating ([1]; 62 g ai/ha): 40
Blackgrass plant response rating ([1]; 125 g ai/ha): 60
Plant response rating, Barnyardgrass ([2]; 125 g ai/ha): 0
Plant response rating, Barnyardgrass ([2]; 500 g ai/ha): 0
Plant response rating, Ducksalad ([3]; 125 g ai/ha): 90
Plant response rating, Ducksalad ([3]; 500 g ai/ha): 90
Plant response rating, Rice (rice (Oryza sativa); 125 g ai/ha): 0
Plant response rating, Rice (rice (Oryza sativa); 500 g ai/ha): 0
Plant response rating, Sedge, Umbrella ([4]; 125 g ai/ha): 60
Plant response rating, Sedge, Umbrella ([4]; 500 g ai/ha): 90
Pigweed plant response rating [5, 15]: 100
Pigweed plant response rating [5, 16]: 100
Foxtail, Giant plant response rating [6, 15]: 60
Foxtail, Giant plant response rating [6, 16]: 70
Plant response rating, Foxtail, Giant [6, 17]: 10
Plant response rating, Foxtail, Giant [6, 16]: 30
Velvetleaf plant response rating [7, 15]: 90
Velvetleaf plant response rating [7, 16]: 100
Plant response rating, Velvetleaf [7, 17]: 70
Plant response rating, Velvetleaf [7, 16]: 90
Lambsquarters plant response rating [8, 15]: 100
Lambsquarters plant response rating [8, 16]: 100
Corn plant response rating (corn (Zea mays); [15]): 70
Corn plant response rating (corn (Zea mays); [16]): 80
Plant response rating, Corn (corn (Zea mays); [17]): 0
Plant response rating, Corn (corn (Zea mays); [16]): 10
Barnyardgrass plant response rating [9, 15]: 90
Barnyardgrass plant response rating [9, 16]: 90
Crabgrass plant response rating [10, 15]: 70
Crabgrass plant response rating [10, 16]: 80
Plant response rating, Crabgrass [10, 17]: 50
Plant response rating, Crabgrass [10, 16]: 70
Morningglory plant response rating [11, 15]: 60
Morningglory plant response rating [11, 16]: 90
Plant response rating, Morningglory [11, 17]: 0
Plant response rating, Morningglory [11, 16]: 10
Cocklebur plant response rating [12, 15]: 100
Cocklebur plant response rating [12, 16]: 100
Plant response rating, Cocklebur [12, 17]: 60
Plant response rating, Cocklebur [12, 16]: 90
Wheat plant response rating [13, 15]: 50
Wheat plant response rating [13, 16]: 60
Plant response rating, Wheat [13, 17]: 50
Plant response rating, Wheat [13, 16]: 70
Surinam Grass plant response rating [14, 15]: 80
Surinam Grass plant response rating [14, 16]: 80
Plant response rating, Surinam Grass [14, 17]: 20
Plant response rating, Surinam Grass [14, 16]: 50
